Columns and labels:
[1] = target: T1, Human immunodeficiency virus type 1 integrase (Human immunodeficiency virus 1, UniProt Q7ZJM1); assay: Inhibition of HIV-1 integrase in strand transfer assay
[2] = target: T1, Human immunodeficiency virus type 1 integrase; assay: Inhibition of HIV-1 integrase in coupled transfer assay
[3] = system: Human immunodeficiency virus 1; assay: Viral protection was determined in a 24 hr HIV-1 viral infectivity assay; format: functional, organism-based

T1 sequence (Q7ZJM1 whole entry): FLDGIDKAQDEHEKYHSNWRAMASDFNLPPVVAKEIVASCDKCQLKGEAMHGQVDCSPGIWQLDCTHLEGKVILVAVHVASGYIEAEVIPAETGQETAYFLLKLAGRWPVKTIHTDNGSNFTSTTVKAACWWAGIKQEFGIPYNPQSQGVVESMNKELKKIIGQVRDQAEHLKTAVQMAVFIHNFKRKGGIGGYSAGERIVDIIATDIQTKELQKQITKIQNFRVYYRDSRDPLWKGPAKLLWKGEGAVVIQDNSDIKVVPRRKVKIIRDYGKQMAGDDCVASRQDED

SMILES | IC50 [1] | IC50 [2] | IC50 ([3]; Human immunodeficiency virus 1, 24 h) | IC50 [3]
COc1cc(O)c2c(O)c3c(cc2c1-c1c(OC)cc(OC)c2c(OC)c4c(cc12)OC(C)C(C)C4=O)OC(C)C(C)C3=O (stereo in doubt; 9d) | > 100 µM | 80 µM | – | –
COc1cc(O)c2c(O)c3c(cc2c1-c1c(OC)cc(OC)c2c(OC)c4c(cc12)OC(C)C(C)C4=O)OC(C)C(C)C3=O (stereo in doubt; 9e) | > 100 µM | 40 µM | – | –
CC1Oc2cc3c(-c4c(O)cc(O)c5c(O)c6c(cc45)OC(C)C(C)C6=O)c(O)cc(O)c3c(O)c2C(=O)C1C (stereo in doubt; form 1) | 12 µM | 2 µM | 3 µM | –
CC1Oc2cc3c(-c4c(O)cc(O)c5c(O)c6c(cc45)OC(C)C(C)C6=O)c(O)cc(O)c3c(O)c2C(=O)C1C (stereo in doubt; form 2) | 12 µM | 2 µM | – | 2 µM

Continued, in another order:

IC50 [1] | IC50 [2] | SMILES | IC50 ([3]; Human immunodeficiency virus 1, 24 h) | IC50 [3]
> 100 µM | 60 µM | COc1cc(OC)c2c(OC)c3c(cc2c1-c1c(OC)cc(OC)c2c(OC)c4c(cc12)OC(C)C(C)C4=O)OC(C)C(C)C3=O (configuration not stated) | – | –
9 µM | 3 µM | C[C@@H]1Oc2cc3c(-c4c(O)cc(O)c5c(O)c6c(cc45)O[C@H](C)[C@@H](C)C(=O)O6)c(O)cc(O)c3c(O)c2C(=O)[C@@H]1C | – | –
> 100 µM | 40 µM | COc1cc(O)c2c(OC)c3c(cc2c1-c1c(OC)cc(OC)c2c(OC)c4c(cc12)OC(C)C(C)C4=O)OC(C)C(C)C3=O (configuration not stated) | – | –
> 100 µM | 8 µM | COc1cc(O)c2c(OC)c3c(cc2c1-c1c(O)cc(OC)c2c(OC)c4c(cc12)OC(C)C(C)C4=O)OC(C)C(C)C3=O (configuration not stated) | – | –
> 100 µM | 50 µM | CC(=O)Oc1cc(OC(C)=O)c2c(OC(C)=O)c3c(cc2c1-c1c(OC(C)=O)cc(OC(C)=O)c2c(OC(C)=O)c4c(cc12)OC(C)C(C)C4=O)OC(C)C(C)C3=O (configuration not stated) | – | –
4 µM | 1 µM | Cc1oc2cc3c(-c4c(O)cc(O)c5c(O)c6c(cc45)O[C@H](C)[C@H](C)C6=O)c(O)cc(O)c3c(O)c2c(=O)c1C | – | –

Source: ChEMBL document CHEMBL1136596, “Four novel bis-(naphtho-gamma-pyrones) isolated from Fusarium species as inhibitors of HIV-1 integrase” (Bioorg Med Chem Lett, 2003)
